From patent US20070208073A1, “Compositions and methods for treating cardiovascular, cerebrovascular and other vascular disease patients” (priority 2006, published 2007)

Assay: Clinical treatment of high risk vascular patients: cholesterol panel (LDL, HDL, triglycerides)
Type: in vivo
Details: for LDL lowering effects on adding adjunct: adjunct added to statin composition, Niacin 500 mg, ezetimibe 10 mg
Procedure: The protocol of the instant invention was developed for patients that are high risk for a life and/or limb threatening vascular event (MI, CVA, limb/part of limb loss, Aortic dissection/rupture, Renal infarction, etc.) such as DM type I and/or II, CAD, PVD, post MI, post CVA, Hypertriglyceridemia, Hypercholesterolemia, AAA, etc.
It is generally acknowledged that a goal for a DM/CAD patient is to have a LDL cholesterol level less than 70 mg/dL (National Cholesterol Education Program Interim Report Guidelines).
Generally, a patient should start with a low dose of one statin, the dose should then be titrated up to half a maximal dose (titrate means to start a patient at the lowest dose and increase the dose monthly based on having a patient that is less than 3× normal levels for the LFTs, the LDL cholesterol level is not to goal, and there is no positive change in signs, symptoms or studies to evaluate vascular function per disease state). At that point, the patient should be evaluated to see if the LDL cholesterol level is near the goal. If the patient is near the goal, adjuncts should be given to see if the LDL cholesterol level can be further lowered. If the patient is not near the LDL cholesterol goal after titration up to half a maximal dose, the dose of the initial statin should be reduced and a low dose second statin from the other group should be added to the regimen (i.e., if the initial statin is a hydrophilic statin, the second statin should be a lipophilic statin; and vice versa). The second statin level should be titrated up to a half maximal dose if upon taking the statin from the other group (i.e., the second statin), the LDL cholesterol level goal is still not attained. If one is near or at the LDL cholesterol level goal before or after titration of the second statin, the adjuncts can be added to further reduce the LDL cholesterol level.

| Structure (SMILES) | LDL lowering effects on adding adjunct | HDL up (niacin 500 mg a day with the composition of statins) | boost to the HDL levels (niacin 500 mg to 750 mg a day, adult, with two-statin composition) |
| --- | --- | --- | --- |
| O=C1[C@H](CC[C@H](O)c2ccc(F)cc2)[C@@H](c2ccc(O)cc2)N1c1ccc(F)cc1 [ezetimibe] | amplified | – | – |
| O=C(O)c1cccnc1 [niacin] | amplified | at least 10% | ≥ 10% |
